Measured values as given in patent publication US7575857B2, “Screening method for identifying protective substances for treating neurodegenerative and/or ischemic disorders” (SYGNIS Bioscience GmbH & Co. KG, priority 2002, dated 2009).
Several values for one entry are separate records, joined by “and”; a condition that tells them apart may be missing. Equal entries are not always repeated.

Columns and labels:
haemoglobin = assay: Haemoglobin concentration in brain homogenate (rapid cyanhaemiglobin method) after one-off i.p. erythropoetin injection; assay type: in vivo, mice; conditions: 5000 units/kg i.p., 24 hours after injection, perfused brain, n=3
Protocol: In continuation of Example 3, the haemoglobin concentration was also determined in the brain of mice to whom intraperitoneal erythropoetin (Erypo made by the company Janssen) had been administered (5000 units/kg body weight). After injection of EPO, the mice were terminally anaesthetised after 24 hours by injection with Rompun/Ketanest, and the blood was rinsed out of the vascular system of the brain by transcardial perfusion with 40 ml Hanks balanced salt solution (HBSS). […] The protein content of the samples was determined according to the Bradford method (Bradford, 1976, Anal. Biochem. 72, 248-254). The haemoglobin concentration was measured with the rapid cyanhaemiglobin method (van Kampen and Zijlstra, 1961, Clin. Chim. Acta 6, 538-544). […] The extinction at 546 nm was then measured and multiplied by 36.7 to obtain the concentration in g/dl. These values were then related to the protein concentration/volume brain tissue, giving the following values (including the measured transgenic animals from Example 3): control animals: 32.54±17.51 μg/mg brain protein (n=10); EPO-transgenic animals (line tg6): 79.00±32.12 (n=13); EPO-injected animals (24 hours after injection): 77.14±13.51 μg/mg brain protein (n=3). […]

[1] = test system: δ-aminolaevulinic acid synthase (ALAS) mRNA; assay: Quantitative PCR for ALAS mRNA in brain of EPO-injected animals; assay type: in vivo
From the text: The primer sequences used and PCR conditions were, for ALAS:
(annealing temperature: 60 C.; measurement temperature: 83 C.; 45 cycles), and for DALDH: Daldh_m—1 s: […] (SEQ ID NO:12), daldh_m—1 as: […] (SEQ ID NO: 13) (annealing temperature: 60 C.; measurement temperature: 85 C.; 45 cycles).
Through the daily administration of this dosage of EPO for 7 days, induction factors of up to 130 times were achieved: sham: 1±0.64; EPO-injected animal 1 (Epo—1)=11.67±5.46; EPO-injected animal 2 (Epo—2)=118.93±31.02; EPO-injected animal 3 (Epo—3)=44.88±15.15; EPO-injected animal 4 (Epo—4)=129.47±8.77 (FIG. 18).

neuroglobin mRNA = assay: Quantitative PCR for neuroglobin mRNA after erythropoetin injection; assay type: in vivo; conditions: 5000 units/kg i.p., single injection
From the text: (§1) However, it has important biochemical characteristics which fundamentally distinguish it from the globins, e.g. a far higher oxygen affinity (Dewilde et al. (2001), Journal of Biological Chemistry, 276, 38949-55). Neuroglobin is neuroprotective, although the mechanism here is not known (Sun et al. (2001), Proc. Natl. Acad. Sci. USA, 98, 15306-11, Venis (2001), Lancet, 358, 2055, Sun et al. (2003), Proc. Natl. Acad. Sci. USA, 5, 5). To determine whether neuroglobin possibly also plays a role in erythropoetin-conveyed neuroprotection, the relative content of neuroglobin mRNA after EPO administration was determined using relative quantitative PCR in comparison with cyclophilin. 5000 units of EPO/kg body weight were applied i.p. and the animals were killed after transcardial perfusion. RNA and cDNA were obtained using standard methods. From serial dilutions of the cDNA (3 times serial dilutions), the levels of cyclophilin and neuroglobin were determined and the ratio of neuroglobin/cyclophilin in the sham-treated animals set at 1. The standard deviations in the following values relate to measurements at different dilutions (n=4) and represent the measurement accuracy. The primers used were: ng1_m_LC—1s: […] (SEQ ID NO: 14), ng1_m_LC—1as: […] (SEQ ID NO: 15) for neuroglobin. […]

alpha globin = alpha globin induction in the animals of the neuroglobin experiment; assay type: in vivo; conditions: same animals as neuroglobin test, 5000 units/kg i.p.
From the text: as §1

beta globin = beta globin induction in the animals of the neuroglobin experiment; assay type: in vivo; conditions: same animals as neuroglobin test, 5000 units/kg i.p.
From the text: as §1

[2] = 5000 units/kg i.p. daily for 7 days

Substance: Erythropoietin [EPO]
- haemoglobin concentration related to brain protein (haemoglobin): 77.14±13.51 μg/mg brain protein
- ALAS induction factors [1, 2]: up to 130 times
- ALAS mRNA level (sham = 1), individual animals [1, 2]: 11.67±5.46 and 118.93±31.02 and 44.88±15.15 and 129.47±8.77
- ALAS mRNA level (sham = 1), individual animals ([1]; one-off dose 5000 units/kg i.p., 24 h): 10.07±0.00 and 8.76±0.18 and 14.69±0.27
- ALAS induction ([1]; same animals as neuroglobin test, 5000 units/kg i.p.): approx. 10 times
- ratio neuroglobin/cyclophilin mRNA (sham-treated set at 1), individual animals (neuroglobin mRNA): no induction and 1.01±0.15 and 0.99±0.15 and 1.04±0.13
- alpha globin induction (alpha globin): approx. 14 times
- beta globin induction (beta globin): approx. 10 times
